# Reference: ChEMBL document CHEMBL1201862, “PubChem BioAssay data set” (2004)
#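 Growth conditions: 96-well plates. Treatment: test compound, 48 hours, 5 concentrations. Analysis: linear interpolation between bracketing concentrations; unreached endpoints set to highest concentration. GI50: concentration for 50% inhibition of growth.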 Active and inactive are the calls of the source. No stated cut-off is given here; in the data, active = GI50 up to about 1.1 µM and inactive = higher.
# Key:
# Assay in all cases: growth of human tumour cells (NCI), 48 h
# [1] = tested on: HCT-116
# [2] = tested on: SNB-19
# [3] = tested on: NCI-H226
# [4] = tested on: NCI-H522
# [5] = tested on: UACC-257
# [6] = tested on: SW-620
# [7] = tested on: CCRF-CEM
# [8] = tested on: SNB-75
# [9] = tested on: NCI-H23
# [10] = tested on: NCI-H460
# [11] = tested on: OVCAR-3
# [12] = tested on: SK-MEL-28
# [13] = tested on: SN12C
# [14] = tested on: A549
# [15] = tested on: SK-OV-3
# [16] = tested on: HCT-15
Compound,GI50 [1],GI50 [2],GI50 [3],GI50 [4],GI50 [5],GI50 [6],GI50 [7],GI50 [8],GI50 [9],GI50 [10],GI50 [11],GI50 [12],GI50 [13],GI50 [14],GI50 [15],GI50 [16] [µM]
c1ccc(C2=NN(c3ccccc3)C3(S2)SC(c2ccccc2)(c2ccccc2)c2ccccc23)cc1 (stereo unspecified),> 100 µM (inactive),> 100 µM (inactive),> 100 µM (inactive),> 100 µM (inactive),> 100 µM (inactive),> 100 µM (inactive),> 100 µM (inactive),> 100 µM (inactive),> 100 µM (inactive),> 100 µM (inactive),> 100 µM (inactive),> 100 µM (inactive),> 100 µM (inactive),> 100 µM (inactive),> 100 µM (inactive),> 100
O=C(O)C1=C(C(=O)Nc2ccccc2)C2C=CC1C2 (stereo unspecified),> 100 µM (inactive),> 100 µM (inactive),,,> 100 µM (inactive),> 100 µM (inactive),> 100 µM (inactive),> 100 µM (inactive),> 100 µM (inactive),> 100 µM (inactive),> 100 µM (inactive),> 100 µM (inactive),> 100 µM (inactive),> 100 µM (inactive),> 100 µM (inactive),> 100
Cc1ccc(NC(=O)c2nc(S)nc(N)c2-c2ccccc2C)cc1C,> 100 µM (inactive),> 100 µM (inactive),> 100 µM (inactive),> 100 µM (inactive),> 100 µM (inactive),> 100 µM (inactive),> 100 µM (inactive),> 100 µM (inactive),> 100 µM (inactive),> 100 µM (inactive),> 100 µM (inactive),> 100 µM (inactive),> 100 µM (inactive),> 100 µM (inactive),> 100 µM (inactive),> 100
O=C1C(c2ccccc2)=C(c2ccccc2)C(c2ccc(Cc3ccc(C4=C(c5ccccc5)C(=O)C(c5ccccc5)=C4c4ccccc4)cc3)cc2)=C1c1ccccc1,> 100 µM (inactive),> 100 µM (inactive),50.6 µM (inactive),> 100 µM (inactive),64.9 µM (inactive),> 100 µM (inactive),> 100 µM (inactive),> 100 µM (inactive),> 100 µM (inactive),> 100 µM (inactive),> 100 µM (inactive),,,> 100 µM (inactive),> 100 µM (inactive),> 100
CCCCCCCCCCCCOC(=N)N1CCOCC1,8.39 µM (inactive),18.5 µM (inactive),20.7 µM (inactive),14.6 µM (inactive),9.35 µM (inactive),4.11 µM (inactive),2.26 µM (inactive),13.7 µM (inactive),13.4 µM (inactive),15 µM (inactive),14.9 µM (inactive),12.2 µM (inactive),4.39 µM (inactive),15.8 µM (inactive),17 µM (inactive),4.08
